Results: US7173004B2, “Macrocyclic isoquinoline peptide inhibitors of hepatitis C virus” (Bristol-Myers Squibb Company, priority 2003, dated 2007)
Counter-ions that a name gives are not always drawn.

These molecules were tested against T1, HCV NS3/4A protease complex, BMS strain (genotype 1a) (UniProt P27958, C1454S/C1711G, species not given/STRAIN_BMS) (assay: Recombinant HCV NS3/4A protease complex FRET peptide assay, BMS strain). Details: NS3/4A BMS Strain; activity range classes.
T1 construct: b1001: DNA encoding the recombinant HCV NS3/4A protease complex (amino acids 1027 to 1711) ... a three-lysine solubilizing tail was added at the 3′-end of the NS4A coding region; fused on or other part: Three-lysine solubilising tail at the C-terminus of NS4A; A His tag is implied by the pET21b vector and Ni-NTA purification
Type: biochemical
In short: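 Recombinant NS3/4A (aa 1027–1711) from H77C, J4L6S or BMS strains, with C1454S and C1711G mutations and three-lysine tail, expressed in E. coli and Ni-NTA/gel-filtration purified to >90%. Inhibition of cleavage of a FRET peptide substrate measured.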
`COc1ccc2c(O[C@@H]3C[C@H]4C(=O)N[C@]5(C(=O)O)C[C@H]5/C=C\CCCO[C@H](C)[C@H](NC(=O)OC(C)(C)C)C(=O)N4C3)nccc2c1` [Compound 61] gave an IC50 of 500 to 5000 nM. `COc1ccc2c(OC3CC4C(=O)NC5(C(=O)O)CC5C=CCOCCCC(NC(=O)OC(C)(C)C)C(=O)N4C3)nccc2c1` (stereo not drawn) [Compound 27, 14-tert-Butoxycarbonylamino-18-(6-methoxy-isoquinolin-1-yloxy)-2,15-dioxo-10-oxa-3,16-diaza-tricyclo[14.3.0.0^4,6]nonadec-7-ene-4-carboxylic acid] showed an IC50 of 50 to 500 nM. `CC(C)(C)OC(=O)N[C@H]1CCCCC/C=C\[C@@H]2C[C@@]2(C(=O)O)NC(=O)[C@@H]2C[C@@H](Oc3nccc4ccccc34)CN2C1=O` [Compound 1, 14-tert-Butoxycarbonylamino-18-(isoquinolin-1-yloxy)-2,15-dioxo-3,16-diaza-tricyclo[14.3.0.0^4,6]nonadec-7-ene-4-carboxylic acid] gave an IC50 of 50 to 500 nM.

Same assay, conditions: NS3/4A BMS strain; activity range symbols
`COc1ccc2c(OC3CC4C(=O)NC5(C(=O)NS(=O)(=O)C6CC6)CC5C=CCOCCCC(NC(=O)OC(C)(C)C)C(=O)N4C3)nccc2c1` (stereo not drawn) [Compound 28, [4-Cyclopropanesulfonylaminocarbonyl-18-(6-methoxy-isoquinolin-1-yloxy)-2,15-dioxo-10-oxa-3,16-diaza-tricyclo[14.3.0.0^4,6]nonadec-7-en-14-yl]-carbamic acid tert-butyl ester] showed an IC50 of under 50 nM. `COc1ccc2c(O[C@@H]3C[C@H]4C(=O)N[C@]5(C(=O)NS(=O)(=O)C6CC6)C[C@H]5/C=C\CCCS(=O)(=O)C[C@H](NC(=O)OC(C)(C)C)C(=O)N4C3)nccc2c1` [Compound 19] was tested, and the IC50 was under 50 nM. Molecule `CCC1(S(=O)(=O)NC(=O)C23CC2C=CCCCCCC(NC(=O)OC(C)(C)C)C(=O)N2CC(Oc4nccc5cc(OC)ccc45)CC2C(=O)N3)CC1` (stereo not drawn) [Compound 54] has an IC50 of under 50 nM. `CC(=O)NC1CCCCCC=CC2CC2(C(=O)NS(=O)(=O)C2CC2)NC(=O)C2CC(Oc3nccc4ccccc34)CN2C1=O` (stereo not drawn) [Compound 26] showed an IC50 of under 50 nM. For `CC(C)(C)OC(=O)NC1CCCCCC=CC2CC2(C(=O)NS(=O)(=O)C2CC2)NC(=O)C2CC(Oc3nc(Cl)cc4ccccc34)CN2C1=O` (stereo not drawn) [Compound 57], the IC50 was under 50 nM. For `COc1c(NC2CCCCCC=CC3CC3(C(=O)NS(=O)(=O)C3CC3)NC(=O)C3CC(Oc4nccc5ccccc45)CN3C2=O)c(=O)c1=O` (stereo not drawn) [Compound 21], the IC50 was under 50 nM. `CCC1(S(=O)(=O)NC(=O)C23CC2C=CCCCOC(C)C(NC(=O)OC(C)(C)C)C(=O)N2CC(Oc4nccc5cc(OC)ccc45)CC2C(=O)N3)CC1` (stereo not drawn) [Compound 70] showed an IC50 of under 50 nM. Work on `N[C@H]1CCCCC/C=C\[C@@H]2C[C@@]2(C(=O)NS(=O)(=O)C2CC2)NC(=O)[C@@H]2C[C@@H](Oc3nccc4ccccc34)CN2C1=O` [Compound 11, Cyclopropanesulfonic acid [14-amino-18-(isoquinolin-1-yloxy)-2,15-dioxo-3,16-diaza-tricyclo[14.3.0.0^4,6]nonadec-7-ene-4-carbonyl]-amide bis hydrochloride] yielded an IC50 of under 50 nM. `CC(C)(C)OC(=O)N[C@H]1CCCCC/C=C\[C@@H]2C[C@@]2(C(=O)NS(=O)(=O)C2CCC2)NC(=O)[C@@H]2C[C@@H](Oc3nccc4ccccc34)CN2C1=O` [Compound 9, [4-Cyclobutanesulfonylaminocarbonyl-18-(isoquinolin-1-yloxy)-2,15-dioxo-3,16-diaza-tricyclo[14.3.0.0^4,6]nonadec-7-en-14-yl]-carbamic acid tert-butyl ester] gave an IC50 of under 50 nM. `COc1ccc2c(OC3CC4C(=O)NC5(C(=O)NS(=O)(=O)C6(C)CC6)CC5C=CCOCCCC(NC(=O)NC5CCCC5)C(=O)N4C3)nccc2c1` (stereo not drawn) [Compound 36] showed an IC50 of under 50 nM. Work on `CCC1(S(=O)(=O)NC(=O)C23CC2C=CCOCCCC(NC(=O)NC2CCCC2)C(=O)N2CC(Oc4nccc5cc(OC)ccc45)CC2C(=O)N3)CC1` (stereo not drawn) [Compound 38] yielded an IC50 of under 50 nM. With `CC1(OC(=O)NC2CCCCCC=CC3CC3(C(=O)NS(=O)(=O)C3CC3)NC(=O)C3CC(Oc4nccc5ccccc45)CN3C2=O)CC1` (stereo not drawn) [Compound 59] the IC50 was under 50 nM. Molecule `CC(C)(C)OC(=O)NC1CSCCCC=CC2CC2(C(=O)NS(=O)(=O)C2CC2)NC(=O)C2CC(Oc3nccc4c(Cl)cccc34)CN2C1=O` (stereo not drawn) [Compound 78] has an IC50 of under 50 nM. For `COc1ccc2c(OC3CC4C(=O)NC5(C(=O)NS(=O)(=O)C6CC6)CC5C=CCCCOC(C)C(NC(=O)OC(C)(C)C)C(=O)N4C3)nccc2c1` (stereo not drawn) [Compound 62], the IC50 was under 50 nM. `CCC1(S(=O)(=O)NC(=O)C23CC2C=CCCC[S+]([O-])CC(NC(=O)OC(C)(C)C)C(=O)N2CC(Oc4nccc5cc(OC)ccc45)CC2C(=O)N3)CC1` (stereo not drawn) [Compound 47] showed an IC50 of under 50 nM. `COc1ccc2c(OC3CC4C(=O)NC5(C(=O)NS(=O)(=O)C6(C)CC6)CC5C=CCCCSCC(NC(=O)NC5CCCC5)C(=O)N4C3)nccc2c1` (stereo not drawn) [Compound 43] gave an IC50 of under 50 nM. `COc1ccc2c(O[C@@H]3C[C@H]4C(=O)N[C@]5(C(=O)NS(=O)(=O)C6CC6)C[C@H]5/C=C\CCCCC[C@H](NC(=O)OC(C)(C)C)C(=O)N4C3)nccc2c1` [Compound 17B, [4-Cyclopropanesulfonylaminocarbonyl-18-(6-methoxy-isoquinolin-1-yloxy)-2,15-dioxo-3,16-diaza-tricyclo[14.3.0.0^4,6]nonadec-7-en-14-yl]-carbamic acid tert-butyl ester] showed an IC50 of under 50 nM. `O=C(N[C@H]1CCCCC/C=C\[C@@H]2C[C@@]2(C(=O)NS(=O)(=O)C2CC2)NC(=O)[C@@H]2C[C@@H](Oc3nccc4ccccc34)CN2C1=O)OC1CCOCC1` [Compound 14, [4-Cyclopropanesulfonylaminocarbonyl-18-(isoquinolin-1-yloxy)-2,15-dioxo-3,16-diaza-tricyclo[14.3.0.0^4,6]nonadec-7-en-14-yl]-carbamic acid tetrahydro-pyran-4-yl ester] was tested, and the IC50 was under 50 nM. `COc1ccc2c(OC3CC4C(=O)NC5(C(=O)NS(=O)(=O)C6CC6)CC5C=CCCCOC(C)C(NC(=O)OCC(C)(C)C)C(=O)N4C3)nccc2c1` (stereo not drawn) [Compound 63] was tested, and the IC50 was under 50 nM. Work on `CC(C)(C)OC(=O)N[C@H]1CCCCC/C=C\[C@@H]2C[C@@]2(C(=O)NS(=O)(=O)C2CC2)NC(=O)[C@@H]2C[C@@H](Oc3nc(-c4ccccc4)cc4ccccc34)CN2C1=O` [Compound 58, [(Z)-(1S,4R,14S,18R)-4-cyclopropanesulfonylaminocarbonyl-2,15-dioxo-18-(3-phenyl-isoquinolin-1-yloxy)-3,16-diaza-tricyclo[14.3.0.0^4,6]nonadec-7-en-14-yl]-carbamic acid tert-butyl ester] yielded an IC50 of under 50 nM. With `COc1ccc2c(OC3CC4C(=O)NC5(C(=O)NS(=O)(=O)C6CC6)CC5C=CCOCCCC(NC(=O)NC(C)(C)C)C(=O)N4C3)nccc2c1` (stereo not drawn) [Compound 34] the IC50 was under 50 nM. With `CC(C)(CCl)OC(=O)NC1CCCCCC=CC2CC2(C(=O)NS(=O)(=O)C2CC2)NC(=O)C2CC(Oc3nccc4ccccc34)CN2C1=O` (stereo not drawn) [Compound 52] the IC50 was under 50 nM. With `COc1ccc2c(OC3CC4C(=O)NC5(C(=O)NS(=O)(=O)C6CC6)CC5C=CCCCSCC(NC(=O)OCC(C)(C)C)C(=O)N4C3)nccc2c1` (stereo not drawn) [Compound 75] the IC50 was under 50 nM. For `COc1ccc2c(OC3CC4C(=O)NC5(C(=O)NS(=O)(=O)C6(C)CC6)CC5C=CCOCCCC(NC(=O)OC(C)C)C(=O)N4C3)nccc2c1` (stereo not drawn) [Compound 35], the IC50 was under 50 nM. `CC(C)(C)COC(=O)N[C@H]1CCCCC/C=C\[C@@H]2C[C@@]2(C(=O)NS(=O)(=O)C2CC2)NC(=O)[C@@H]2C[C@@H](Oc3nccc4ccccc34)CN2C1=O` [Compound 13, [4-Cyclopropanesulfonylaminocarbonyl-18-(isoquinolin-1-yloxy)-2,15-dioxo-3,16-diaza-tricyclo[14.3.0.0^4,6]nonadec-7-en-14-yl]-carbamic acid 2,2-dimethyl-propyl ester] was tested, and the IC50 was under 50 nM. Work on `CCC1(S(=O)(=O)NC(=O)C23CC2C=CCCCOC(C)C(NC(=O)NC2CCCC2)C(=O)N2CC(Oc4nccc5cc(OC)ccc45)CC2C(=O)N3)CC1` (stereo not drawn) [Compound 73] yielded an IC50 of under 50 nM. In the case of `COc1ccc2c(OC3CC4C(=O)NC5(C(=O)NS(=O)(=O)C6(C)CC6)CC5C=CCOCCCC(NC(=O)OC(C)(C)C)C(=O)N4C3)nccc2c1` (stereo not drawn) [Compound 29], the IC50 is reported as under 50 nM. `COc1ccc2c(OC3CC4C(=O)NC5(C(=O)NS(=O)(=O)C6CC6)CC5C=CCCCCCC(NC(=O)N5CCCC5)C(=O)N4C3)nccc2c1` (stereo not drawn) [Compound 60] was tested, and the IC50 was under 50 nM. `CCC1(S(=O)(=O)NC(=O)C23CC2C=CCCCS(=O)(=O)CC(NC(=O)OC(C)(C)C)C(=O)N2CC(Oc4nccc5cc(OC)ccc45)CC2C(=O)N3)CC1` (stereo not drawn) [Compound 48] was tested, and the IC50 was under 50 nM. For `O=C(N[C@H]1CCCCC/C=C\[C@@H]2C[C@@]2(C(=O)NS(=O)(=O)C2CC2)NC(=O)[C@@H]2C[C@@H](Oc3nccc4ccccc34)CN2C1=O)O[C@H]1CCOC1` [Compound 15, [4-Cyclopropanesulfonylaminocarbonyl-18-(isoquinolin-1-yloxy)-2,15-dioxo-3,16-diaza-tricyclo[14.3.0.0^4,6]nonadec-7-en-14-yl]-carbamic acid tetrahydro-furan-3-yl ester], the IC50 was under 50 nM. `CC1(OC(=O)N[C@H]2CCCCC/C=C\[C@@H]3C[C@@]3(C(=O)NS(=O)(=O)C3CC3)NC(=O)[C@@H]3C[C@@H](Oc4nccc5ccccc45)CN3C2=O)CCC1` [Compound 56, [(Z)-(1S,4R,14S,18R)-4-cyclopropanesulfonylaminocarbonyl-18-(isoquinolin-1-yloxy)-2,15-dioxo-3,16-diaza-tricyclo[14.3.0.0^4,6]nonadec-7-en-14-yl]-carbamic acid 1-methyl-cyclobutyl ester] was tested, and the IC50 was under 50 nM. With `O=C(NC1CCCCCC=CC2CC2(C(=O)NS(=O)(=O)C2CC2)NC(=O)C2CC(Oc3nccc4ccccc34)CN2C1=O)OC1CCCC1` (stereo not drawn) [Compound 20] the IC50 was under 50 nM. With `COc1ccc2c(OC3CC4C(=O)NC5(C(=O)NS(=O)(=O)C6CC6)CC5C=CCOCCCC(NC(=O)OC(C)(C)C(F)(F)F)C(=O)N4C3)nccc2c1` (stereo not drawn) [Compound 39] the IC50 was under 50 nM.
